Experimental findings from ChEMBL document CHEMBL2062499, “Synthesis of benzofuran based 1,3,5-substituted pyrazole derivatives: as a new class of potent antioxidants and antimicrobials--a novel accost to amend biocompatibility” (Bioorg Med Chem Lett, 2012) are described below.

Assay [1] concerns Escherichia coli. The assay can be described thus: Antibacterial activity Escherichia coli ATCC 25922 at 0.5 mg/ml after 24 hrs by well plate method. Type of assay: functional. The conditions noted are these: ATCC 25922, 24 h, read-out: DIZ.
Assay [2] has as its system Pseudomonas aeruginosa. The assay can be described thus: Antibacterial activity Pseudomonas aeruginosa ATCC 27853 at 1 mg/ml after 24 hrs by well plate method. The conditions noted are these: ATCC 27853, 24 h, read-out: DIZ. The class given is functional.
The subject of assay [3] is Candida albicans. Nature of the assay: Antifungal activity against Candida albicans MTCC 2827 at 0.5 mg/ml after 72 hrs by well plate method. The class given is functional. The conditions noted are these: MTCC 2827, 72 h, read-out: DIZ.
In assay [4] the test system is Staphylococcus aureus. Nature of the assay: Antibacterial activity Staphylococcus aureus ATCC 25923 at 1 mg/ml after 24 hrs by well plate method. The class given is functional. The conditions noted are these: ATCC 25923, 24 h, read-out: DIZ.
For assay [5], the system named is Staphylococcus aureus. Nature of the assay: Antibacterial activity Staphylococcus aureus ATCC 25923 at 0.5 mg/ml after 24 hrs by well plate method. The conditions noted are these: ATCC 25923, 24 h, read-out: DIZ. Type of assay: functional.
Assay [6] relates to Candida albicans. Nature of the assay: Antifungal activity against Candida albicans MTCC 2827 at 1 mg/ml after 72 hrs by well plate method. The conditions noted are these: MTCC 2827, 72 h, read-out: DIZ. Type of assay: functional.
In assay [7] the test system is Aspergillus flavus. The assay can be described thus: Antifungal activity against Aspergillus flavus MTCC 3306 at 1 mg/ml after 72 hrs by well plate method. Type of assay: functional. The conditions noted are these: MTCC 3306, 72 h, read-out: DIZ.
Assay [8] can be described thus: Antifungal activity against Chrysosporium keratinophilum MTCC 3017 at 1 mg/ml after 72 hrs by well plate method. The class given is functional.
A short description of assay [9]: Antifungal activity against Chrysosporium keratinophilum MTCC 3017 at 0.5 mg/ml after 72 hrs by well plate method. The class given is functional.
Another assay has as its system Liver microsomes. Nature of the assay: Antioxidant activity in Wistar rat liver microsomes assessed as inhibition of microsomal lipid peroxidation after 15 mins by MDA-TBA assay. Type of assay: functional, Microsome.
For assay [10], the system named is Radical scavenging activity. Nature of the assay: Antioxidant activity assessed as DPPH radical scavenging activity after 20 mins by UV-Vis spectrophotometric analysis. The class given is functional.
Assay [11] has as its system Pseudomonas aeruginosa. The assay can be described thus: Antibacterial activity Pseudomonas aeruginosa ATCC 27853 at 0.5 mg/ml after 24 hrs by well plate method. The class given is functional. The conditions noted are these: ATCC 27853, 24 h, read-out: DIZ.
The subject of assay [12] is Escherichia coli. Nature of the assay: Antibacterial activity Escherichia coli ATCC 25922 at 1 mg/ml after 24 hrs by well plate method. The class given is functional. The conditions noted are these: ATCC 25922, 24 h, read-out: DIZ.
Assay [13] has as its system Aspergillus flavus. Nature of the assay: Antifungal activity against Aspergillus flavus MTCC 3306 at 0.5 mg/ml after 72 hrs by well plate method. The class given is functional. The conditions noted are these: MTCC 3306, 72 h, read-out: DIZ.

For the molecule `COc1cc(C2CC(c3cc4ccccc4o3)=NN2C(=O)Nc2ccc(F)cc2)ccc1O` (centres undefined), the zone of inhibition at 500 µg/mL in the assay on Escherichia coli [1] is 12 mm; with Candida albicans [3], 21 mm; in the assay on Staphylococcus aureus [5], 14 mm; with Pseudomonas aeruginosa [11], 16 mm; in the assay with Aspergillus flavus [13] it was 9 mm. In addition, the zone of inhibition at 1000 µg/mL in the assay on Pseudomonas aeruginosa [2] amounted to 19 mm; in the assay on Staphylococcus aureus [4], 16 mm; with Candida albicans [6], 24 mm; in the assay with Aspergillus flavus [7], 11 mm; in the assay with Escherichia coli [12] it was 18 mm. Moreover, the inhibition zone (IZ) in assay [8] was 15 mm; in assay [9], 11 mm. For the same molecule, the IC50 was found to be 125 uM/ml in the assay on Liver microsomes and 110 uM/ml in assay [10].

As to `COc1cc(C2CC(c3cc4ccccc4o3)=NN2C(=O)Nc2ccc(O)c(O)c2)ccc1O` (centres undefined), the zone of inhibition at 500 µg/mL in the assay with Escherichia coli [1] stood at 1 mm; with Candida albicans [3] it was 1 mm; in the assay on Staphylococcus aureus [5] it was 1 mm; in the assay with Pseudomonas aeruginosa [11] it was 3 mm; in the assay on Aspergillus flavus [13], 2 mm. The zone of inhibition at 1000 µg/mL was determined as 5 mm with Pseudomonas aeruginosa [2]; 2 mm with Staphylococcus aureus [4]; 2 mm in the assay on Candida albicans [6]; 3 mm with Aspergillus flavus [7]; 2 mm in the assay on Escherichia coli [12]. The inhibition zone (IZ) in assay [8] stood at 2 mm; in [9], 1 mm. For the same molecule, the IC50 in the assay with Liver microsomes stood at 11 uM/ml; in [10], 9.5 uM/ml.

Regarding `COc1cc(C2CC(c3cc4ccccc4o3)=NN2C(=O)Nc2cccc(O)c2)ccc1O` (centres undefined), the zone of inhibition at 500 µg/mL was 1 mm in the assay on Escherichia coli [1]; 1 mm in the assay with Candida albicans [3]; 1 mm in the assay with Staphylococcus aureus [5]; 2 mm in the assay with Pseudomonas aeruginosa [11]; 1 mm in the assay on Aspergillus flavus [13]. Besides, the zone of inhibition at 1000 µg/mL in the assay on Pseudomonas aeruginosa [2] was 3 mm; in the assay on Staphylococcus aureus [4], 2 mm; with Candida albicans [6], 3 mm; with Aspergillus flavus [7], 2 mm; with Escherichia coli [12] it was 3 mm. Also, the results for the inhibition zone (IZ) in [8] and in assay [9] were 2 mm and 1 mm, respectively. Further, the IC50 in the assay with Liver microsomes is on record as 24 uM/ml; in assay [10] it was 21 uM/ml.

On to `COc1cc(C2CC(c3cc4ccccc4o3)=NN2C(=O)Nc2ccc(Br)cc2)ccc1O` (centres undefined), for which the zone of inhibition at 500 µg/mL in the assay on Escherichia coli [1] came to 10 mm; in the assay on Candida albicans [3] it was 15 mm; with Staphylococcus aureus [5], 6 mm; in the assay with Pseudomonas aeruginosa [11], 7 mm; in the assay on Aspergillus flavus [13], 4 mm. In addition, the zone of inhibition at 1000 µg/mL stood at 10 mm in the assay on Pseudomonas aeruginosa [2]; 8 mm in the assay on Staphylococcus aureus [4]; 19 mm in the assay with Candida albicans [6]; 6 mm with Aspergillus flavus [7]; 16 mm with Escherichia coli [12]. Further, the inhibition zone (IZ) came to 10 mm in assay [8] and 9 mm in assay [9]. The IC50 in the assay on Liver microsomes is recorded as 115 uM/ml; in [10], 105 uM/ml.

As for `COc1cc(C2CC(c3cc4ccccc4o3)=NN2C(=O)Nc2ccc(C)cc2)ccc1O` (centres undefined), the zone of inhibition at 500 µg/mL came out at 4 mm in the assay with Escherichia coli [1]; 1 mm in the assay with Candida albicans [3]; 3 mm in the assay on Staphylococcus aureus [5]; 3 mm in the assay with Pseudomonas aeruginosa [11]; 2 mm in the assay on Aspergillus flavus [13]. The zone of inhibition at 1000 µg/mL was determined as 4 mm with Pseudomonas aeruginosa [2]; 4 mm in the assay on Staphylococcus aureus [4]; 3 mm in the assay on Candida albicans [6]; 3 mm in the assay with Aspergillus flavus [7]; 5 mm with Escherichia coli [12]. Besides, the values for the inhibition zone (IZ) in assay [8] and in assay [9] were 3 mm and 1 mm, respectively. For the same molecule, the IC50 in the assay with Liver microsomes stood at 44 uM/ml; in assay [10], 37 uM/ml.

As for `COc1cc(C2CC(c3cc4ccccc4o3)=NN2C(=O)Cl)ccc1O` (centres undefined), the zone of inhibition at 500 µg/mL was found to be 2 mm with Escherichia coli [1]; 3 mm in the assay with Candida albicans [3]; 1 mm in the assay with Staphylococcus aureus [5]; 2 mm in the assay with Pseudomonas aeruginosa [11]; 1 mm in the assay with Aspergillus flavus [13]. For the same molecule, the zone of inhibition at 1000 µg/mL with Pseudomonas aeruginosa [2] is 2 mm; in the assay on Staphylococcus aureus [4], 2 mm; with Candida albicans [6], 4 mm; in the assay with Aspergillus flavus [7], 2 mm; in the assay on Escherichia coli [12] it was 3 mm. Further, the inhibition zone (IZ) turned out to be 3 mm in assay [8] and 2 mm in [9]. The figures for the IC50 (in the assay on Liver microsomes; in assay [10]) were 147 uM/ml and 135 uM/ml, respectively.
